This assay concerns dorsal skin wound. Description: Histopathological measurements of skin wounds. The class given is in vivo, mice. As for the experimental part: Implants were prepared by cutting medical grade Silastic (polydimethylsiloxane) tubing (1.5 mm inner diameter, 2.3 mm outer diameter, Aunet Pty Ltd, WA, Australia) to the desired length (1 cm long) and sealing one end with Multi-Purpose Sealant (Dow Corning RTV Sealant). After 24 hours each tube was packed with either crystalline testosterone (Sigma #T-1500) or left empty (vehicle implant). The open end was then sealed and implants were allowed to dry for at least 24 hours prior to surgical implantation. The implant size was considered to be the length of tubing containing testosterone. Prior to subcutaneous insertion, implants were sterilized in absolute ethanol for 10 minutes which also removed any androgen adhering to its external surface. Each testosterone or vehicle implant was inserted subcutaneously via a 5-mm nape incision in intact and castrated male mice three weeks before the wound healing experiments and the incision site was closed with 5/0 sutures.
Under anesthesia, the dorsal flanks of each 9 weeks old mouse (n=6/group) were carefully shaved and cleansed with 70% v/v ethanol. To create wounds, full-thickness, parasagittal linear incisions (1 cm long) were made through the skin and underlying the panniculus carnosus muscle on each flank and each wound was closed using two 5/0 silk sutures placed 3 mm from each end of the wound. Post operatively, all animals received analgesia to minimize pain, were allowed to recover on a heated pad and then housed in groups of four animals per cage. Incisions were examined and assessed on days 3, 5, 7 and post-wounding.
Following exsanguination, anesthetized animals were killed by cervical dislocation. Full-thickness specimens of the skin wound, consisting of the entire wound scar surrounded by a border of about 3-mm, were excized and bisected. Half of each sample was frozen at −80° C. and the other half was fixed in 4% v/v paraformaldehyde (Sigma-Aldrich, NSW, Australia) and processed for histology. Unwounded skin was obtained from the dorsum of the trunk near the tail of each animal to determine protein levels.
Transverse histological sections (5 μm) of skin from the center of each wound were stained with hematoxylin and eosin (H&E) [Harris' Hematoxylin, 1% v/v Eosin, Amber Scientific, Midvale, Wash., Australia] and analyzed by light microscopy. All histological analyses were performed blind without knowledge of the identity of each specimen. Histological sections were scanned for assessment using Aperio ScanScope AT Turbo Scanner (Aperio, CA, USA) and the electronic slides (eSlides) were visualized and analyzed using Aperio ImageScope.
Wound width was calculated by measuring the distance between the unwounded dermis margins at the epidermis-dermis junction (Gilliver et al. (2008) endocrinology 149(11):5747-5757). When the width was <0.2 mm, the wound was considered closed. Reepithelialization was assessed using the following scoring method: 0, absent; 1, present, covering <50% of the wound; 2, present, covering >50% and <100% of the wound; 3, present, covering 100% with irregular thickness; 4, present, covering 100% with regular thickness (Steed et al. (1997) 77(3):575-586). To determine epidermal hyperplasia, the mean distance between the stratum granulosum and the epidermal-dermal junction of each wound site was calculated (10 measurements per section, using a 10× objective). Unwounded skin was used as control.
Sections from day 7 and day 14 wounds were also stained with Masson's trichrome to highlight connective tissue. The area of granulation tissue was measured by defining the area located between the basal surface of the epidermis and the panniculus carnosus below. Collagen orientation was assessed using the following scoring method: 1, basket-weave fibers; 2, basket-weave >parallel fibers; 3, parallel fibers >basket-weave fibers; 4, parallel fibers (Ashcroft and Mills (2002) J Clin Invest 110(5):615-624).

From patent publication US20210062263A1, “A CLINICAL […]” (priority 2016, published 2021) come the findings set out here.

Structures are written as SMILES.

Turning to `C[C@]12CC[C@H]3[C@@H](CCC4=CC(=O)CC[C@@]43C)[C@@H]1CC[C@@H]2O` [testosterone], the collagen fiber orientation result (castrated males treated with testosterone, day 14 post-wounding) is recorded as “predominant parallel orientation”. Further, the wound width result by setting is: (castrated males, testosterone replacement vs castrated group, days 3 and 5 post-wounding) “significantly increased wound widths”; (intact males treated with testosterone vs intact group, day 3 post-wounding) “decreased wound width”. The re-epithelialization result (castrated+T group, day 5 post-wounding) is given as “re-epithelialization was complete”. Moreover, the epidermal thickness entry (castrated+T group, days 3, 5 and 7 post-wounding) is “increased thickness of the epidermis”. In addition, the “wound closure (summary)” value (male mice) is “delayed wound closure”.
